Some test systems named below: HCC-2998 colon; DU-145 prostate; MDA-MB-435; UO-31 renal; LOX IMVI melanoma; SF-539 CNS; A549 NSCLC; HCT-15 colon.
Common to all, as to experiment: DTP human tumour cell line panel, 48 h

Where “and” joins values, the source holds several entries; their conditions need not be identical. Equal values may be shown once.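 Grown in 96-well plates, cells were treated for 48 hours with each compound at five concentrations. Insufficient inhibition: endpoint recorded as highest concentration tested. At the GI50, growth is halved. TGI: total growth inhibition.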 Some results are limits rather than exact numbers.

In general, TGI refers to the concentration at which net growth stops. A low value points to more potent growth arrest. Broadly, the GI50 is the concentration that inhibits growth by half.

`Nc1nc(-c2cccs2)cs1`: the TGI in the assay on HCC-2998 colon, in the assay on DU-145 prostate, in the assay with MDA-MB-435, in the assay on UO-31 renal, with LOX IMVI melanoma and in the assay with SF-539 CNS was more than 100 µM throughout. The TGI in the assay with A549 NSCLC and with HCT-15 colon was more than 100 µM throughout.

As to `Cc1cc2nc(C(Cl)Cl)nc(-c3ccccc3)n2n1`, the GI50 with HCC-2998 colon is 1.79 µM; with DU-145 prostate, 1.95 µM; in the assay with MDA-MB-435 it was 5.84 µM; with UO-31 renal it was 5.02 µM; in the assay on LOX IMVI melanoma it was 24.4 µM; in the assay with SF-539 CNS it was 3.94 µM. Further, the GI50 was 2.48 µM with A549 NSCLC and 4.11 µM in the assay with HCT-15 colon. Besides, the TGI with HCC-2998 colon is 3.49 µM; with DU-145 prostate, 5.41 µM; in the assay on MDA-MB-435, 23.9 µM; in the assay with UO-31 renal it was 21.6 µM; with LOX IMVI melanoma, more than 100 µM; in the assay on SF-539 CNS, 25 µM. Moreover, the total growth inhibition concentration (TGI) in the assay with A549 NSCLC stood at 6.45 µM; with HCT-15 colon, 20.8 µM.

Turning to `CC#CC(=O)N1CC[C@@H](n2c(=O)n(-c3ccc(Oc4ccccc4)cc3)c3c(N)ncnc32)C1`, the GI50 in the assay with HCC-2998 colon is 42.5 µM; in the assay with DU-145 prostate, 33.5 µM; in the assay with MDA-MB-435, 27.4 µM; in the assay with UO-31 renal it was 10.8 µM; in the assay with LOX IMVI melanoma, 18.6 µM; in the assay on SF-539 CNS, 25 µM. Moreover, the GI50 was 55 µM in the assay with A549 NSCLC and 26.3 µM in the assay with HCT-15 colon. Besides, the TGI is more than 100 µM in the assay with HCC-2998 colon; more than 100 µM in the assay with DU-145 prostate; more than 100 µM with MDA-MB-435; more than 100 µM in the assay on UO-31 renal; 83.4 µM with LOX IMVI melanoma; more than 100 µM in the assay with SF-539 CNS. For the same compound, the TGI in the assay on A549 NSCLC and with HCT-15 colon was more than 100 µM each time.

Consider `Cc1cc(N(CCOS(C)(=O)=O)CCOS(C)(=O)=O)ccc1C=Nc1ccc(-c2csc(-c3ccc(Br)cc3)n2)cc1`, for which the TGI with HCC-2998 colon is 31.8 µM; in the assay with DU-145 prostate it was 57.4 µM; in the assay on MDA-MB-435 it was 58.8 µM; with UO-31 renal it was 33.6 µM; in the assay on LOX IMVI melanoma it was 36.5 µM; in the assay on SF-539 CNS, 9.64 µM. Further, the results for the concentration for total growth inhibition (TGI) in the assay with A549 NSCLC and with HCT-15 colon were 53.1 µM and 50.3 µM, respectively.

With `CC1=CC(=O)c2ccc(C)cc2C1=O`, the concentration for total growth inhibition (TGI) in the assay with HCC-2998 colon came out at 34.7 µM; in the assay on DU-145 prostate, 35.7 µM; with MDA-MB-435, 5.78 µM; with UO-31 renal, 24.6 µM; with LOX IMVI melanoma it was 17.5 µM; with SF-539 CNS, 30 µM. Besides, the TGI turned out to be 36.9 µM in the assay on A549 NSCLC and 27.3 µM in the assay with HCT-15 colon.

`Nc1ccc(-c2ccc(-c3nc4cc(Cl)c(Cl)cc4[nH]3)cc2)cc1`: the GI50 in the assay with HCC-2998 colon is 0.1 µM; with DU-145 prostate, 2.36 µM; in the assay with MDA-MB-435 it was 0.199 µM; in the assay on UO-31 renal it was 0.674 µM; in the assay with LOX IMVI melanoma, 0.0361 µM; in the assay on SF-539 CNS, 1.38 µM. Further, the GI50 in the assay with A549 NSCLC is 1.46 µM; with HCT-15 colon, 0.406 µM. For the same compound, the total growth inhibition concentration (TGI) is 0.426 µM in the assay on HCC-2998 colon; 98.4 µM in the assay with DU-145 prostate; more than 84.7 µM with MDA-MB-435; 13.3 µM in the assay on UO-31 renal; more than 25.8 µM with LOX IMVI melanoma; more than 51.5 µM with SF-539 CNS. The TGI with A549 NSCLC and in the assay on HCT-15 colon was more than 100 µM in each case.

Take `O=C(O)CCSC(=S)Nc1ccc([N+](=O)[O-])cc1`: the TGI with HCC-2998 colon was more than 100 µM; in the assay on DU-145 prostate, more than 100 µM; with MDA-MB-435, 61.3 µM; in the assay with UO-31 renal, more than 100 µM; with LOX IMVI melanoma, more than 75.7 µM; with SF-539 CNS, more than 75.5 µM. For the same compound, the TGI with A549 NSCLC and with HCT-15 colon was more than 100 µM throughout.

`CCN1CCN(c2ccc(Nc3ncc4ccc5ncn(C(C)C)c5c4n3)nc2)CC1`: the concentration for 50% growth inhibition (GI50) with HCC-2998 colon is 0.161 µM; in the assay on DU-145 prostate, 0.126 µM; in the assay on MDA-MB-435, 0.132 µM; in the assay on UO-31 renal, 0.0291 µM; in the assay with LOX IMVI melanoma, 0.116 µM; with SF-539 CNS, 0.171 µM. The results for the 50% growth inhibitory concentration (GI50) with A549 NSCLC and in the assay on HCT-15 colon were 0.0838 µM and 0.0636 µM, respectively. The TGI stood at 1.43 µM in the assay on HCC-2998 colon; 4.3 µM with DU-145 prostate; 1.61 µM with MDA-MB-435; 0.378 µM in the assay with UO-31 renal; 0.556 µM with LOX IMVI melanoma; 0.394 µM in the assay with SF-539 CNS. Also, the concentration for total growth inhibition (TGI) stood at 10.4 µM in the assay on A549 NSCLC and 1.16 µM in the assay with HCT-15 colon.

As to `COc1cc2c3c(n(CCCN4CCCC(O)C4)c(=O)c2cc1OC)-c1cc2c(cc1C3=O)OCO2` (centres undefined), the GI50 in the assay with HCC-2998 colon is 0.0763 µM; in the assay on DU-145 prostate it was less than 0.005 µM; with MDA-MB-435, 0.836 µM; in the assay on UO-31 renal, 0.96 µM; in the assay with LOX IMVI melanoma, 0.0213 µM; in the assay on SF-539 CNS, less than 0.005 µM. Besides, the GI50 is 0.642 µM in the assay on A549 NSCLC and 0.709 µM with HCT-15 colon. Moreover, the concentration for total growth inhibition (TGI) amounted to 1.05 µM with HCC-2998 colon; 0.592 µM with DU-145 prostate; 2.98 µM with MDA-MB-435; 2.24 µM with UO-31 renal; 0.849 µM in the assay on LOX IMVI melanoma; 0.0384 µM in the assay with SF-539 CNS. In addition, the TGI in the assay with A549 NSCLC turned out to be 1.51 µM; in the assay on HCT-15 colon, 1.7 µM.

`Cn1c(=N)n[n+]([O-])c2ccccc21`: the concentration for total growth inhibition (TGI) is 39.1 µM with HCC-2998 colon; 4.11 µM and 4.12 µM in the assay with DU-145 prostate; 1.83 µM and 2.39 µM in the assay on MDA-MB-435; 8.83 µM and 17.6 µM in the assay with UO-31 renal; more than 100 µM with LOX IMVI melanoma; 3.67 µM and 2.98 µM with SF-539 CNS. Besides, the TGI is 23.1 µM and 29.8 µM in the assay on A549 NSCLC; 10.8 µM with HCT-15 colon. Further, the GI50 with HCT-15 colon was 4.72 µM.

Turning to `O=S(=O)(CCCCl)SCCCCl`, the concentration for total growth inhibition (TGI) was more than 100 µM in the assay with HCC-2998 colon; more than 100 µM in the assay on DU-145 prostate; more than 67.2 µM in the assay with MDA-MB-435; more than 100 µM with UO-31 renal; 40.6 µM in the assay with LOX IMVI melanoma; 53.4 µM in the assay on SF-539 CNS. The concentration for total growth inhibition (TGI) in the assay on A549 NSCLC is more than 100 µM; in the assay on HCT-15 colon it was 54.7 µM.

Values taken from PubChem BioAssay (NCI).
